By AC50 is commonly meant the midpoint of the concentration-response curve, whichever way the signal moves. The IC50 is the concentration that gives 50% inhibition. Usually EC50 stands for the concentration that produces a half-maximal response.

Assay [1] can be described thus: Luminescence Cell-Based Dose Retest to Confirm Inhibitors of Cancer Stem Cells. [Related pubchem assays (depositor defined):AID2717, AID2721]. It is filed as functional. As to conditions: Homo sapiens.
Another assay concerns the target T1, Caspase-3 (Homo sapiens, UniProt P42574).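 Further: Dose-response selectivity test against caspase-3 for candidate inhibitors of sentrin-specific proteases (SENPs).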
T1 sequence (P42574 whole entry): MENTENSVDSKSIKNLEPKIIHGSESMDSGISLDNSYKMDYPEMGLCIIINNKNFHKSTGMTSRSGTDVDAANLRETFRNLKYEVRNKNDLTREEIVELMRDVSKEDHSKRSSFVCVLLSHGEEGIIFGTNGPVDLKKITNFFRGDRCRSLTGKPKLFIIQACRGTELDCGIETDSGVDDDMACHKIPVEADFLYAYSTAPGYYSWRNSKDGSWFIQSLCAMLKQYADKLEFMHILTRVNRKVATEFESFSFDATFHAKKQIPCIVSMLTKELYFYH
The class given is functional.

In assay [2] the target is T2, Sentrin-specific protease 7 (Homo sapiens, UniProt Q9BQF6).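 Further: Luminescence-based dose-response confirmation of ultra-high-throughput screening hits, measuring inhibition of SENP7.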
T2 sequence (Q9BQF6 whole entry): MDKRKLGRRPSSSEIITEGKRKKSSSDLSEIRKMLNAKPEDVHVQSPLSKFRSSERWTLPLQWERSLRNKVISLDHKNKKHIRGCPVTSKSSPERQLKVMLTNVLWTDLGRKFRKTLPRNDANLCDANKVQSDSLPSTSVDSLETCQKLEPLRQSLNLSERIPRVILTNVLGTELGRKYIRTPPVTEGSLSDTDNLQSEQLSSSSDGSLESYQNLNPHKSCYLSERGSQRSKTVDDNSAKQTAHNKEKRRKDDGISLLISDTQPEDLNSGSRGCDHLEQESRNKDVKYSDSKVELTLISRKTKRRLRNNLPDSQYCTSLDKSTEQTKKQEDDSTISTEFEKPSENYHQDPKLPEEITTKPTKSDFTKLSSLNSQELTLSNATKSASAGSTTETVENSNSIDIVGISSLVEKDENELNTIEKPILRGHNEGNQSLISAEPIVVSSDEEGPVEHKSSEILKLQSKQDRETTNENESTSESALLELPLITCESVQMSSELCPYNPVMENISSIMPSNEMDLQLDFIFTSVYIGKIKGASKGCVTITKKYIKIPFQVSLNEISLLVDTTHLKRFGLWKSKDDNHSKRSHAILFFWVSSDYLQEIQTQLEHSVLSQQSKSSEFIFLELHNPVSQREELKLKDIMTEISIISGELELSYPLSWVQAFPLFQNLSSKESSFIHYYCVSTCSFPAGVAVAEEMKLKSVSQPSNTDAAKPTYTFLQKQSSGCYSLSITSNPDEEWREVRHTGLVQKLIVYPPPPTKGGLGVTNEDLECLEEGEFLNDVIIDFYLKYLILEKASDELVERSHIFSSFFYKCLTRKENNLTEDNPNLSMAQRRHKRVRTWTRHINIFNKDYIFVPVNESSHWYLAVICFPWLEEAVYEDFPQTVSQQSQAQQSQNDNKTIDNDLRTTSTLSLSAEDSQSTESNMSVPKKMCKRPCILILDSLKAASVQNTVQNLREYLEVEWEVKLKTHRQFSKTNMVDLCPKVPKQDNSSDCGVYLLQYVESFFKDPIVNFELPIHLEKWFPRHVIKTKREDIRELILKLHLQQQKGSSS
It is filed as functional.

Assay [3] deals with T3, Sentrin-specific protease 6 (Homo sapiens, UniProt Q9GZR1).
T3 sequence (Q9GZR1 whole entry): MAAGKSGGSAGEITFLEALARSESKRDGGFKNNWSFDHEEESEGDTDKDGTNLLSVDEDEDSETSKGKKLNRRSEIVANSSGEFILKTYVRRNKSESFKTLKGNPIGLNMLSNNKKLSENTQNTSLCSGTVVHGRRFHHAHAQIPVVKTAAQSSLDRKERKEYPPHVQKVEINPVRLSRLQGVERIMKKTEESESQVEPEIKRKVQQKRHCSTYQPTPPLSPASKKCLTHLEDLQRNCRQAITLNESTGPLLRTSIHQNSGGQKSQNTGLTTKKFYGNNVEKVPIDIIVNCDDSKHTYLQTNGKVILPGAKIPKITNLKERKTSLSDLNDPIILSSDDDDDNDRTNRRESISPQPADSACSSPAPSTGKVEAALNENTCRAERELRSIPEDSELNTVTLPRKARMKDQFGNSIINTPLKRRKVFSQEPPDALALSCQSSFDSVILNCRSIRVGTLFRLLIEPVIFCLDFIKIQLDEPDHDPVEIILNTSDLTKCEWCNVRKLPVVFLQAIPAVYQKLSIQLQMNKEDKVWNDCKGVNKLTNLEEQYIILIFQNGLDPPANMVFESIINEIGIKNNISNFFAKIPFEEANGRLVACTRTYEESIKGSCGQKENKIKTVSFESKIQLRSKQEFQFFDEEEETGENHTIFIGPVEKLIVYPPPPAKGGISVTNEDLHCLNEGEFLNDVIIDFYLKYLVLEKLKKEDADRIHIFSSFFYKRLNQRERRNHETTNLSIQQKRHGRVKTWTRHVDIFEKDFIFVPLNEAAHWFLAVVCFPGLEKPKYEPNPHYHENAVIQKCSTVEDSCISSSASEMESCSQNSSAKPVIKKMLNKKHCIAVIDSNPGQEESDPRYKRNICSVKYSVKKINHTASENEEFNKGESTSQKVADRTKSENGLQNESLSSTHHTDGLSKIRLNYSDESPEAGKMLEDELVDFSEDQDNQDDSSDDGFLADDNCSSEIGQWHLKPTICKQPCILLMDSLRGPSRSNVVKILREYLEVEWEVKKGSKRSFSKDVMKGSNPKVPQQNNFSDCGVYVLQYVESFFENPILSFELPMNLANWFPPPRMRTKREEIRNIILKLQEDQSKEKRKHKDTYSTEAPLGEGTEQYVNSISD
It is filed as functional.

The target of assay [4] is T4, Sentrin-specific protease 8 (Homo sapiens, UniProt Q96LD8).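 Further: luminescence read-out of SENP8 inhibition, dose-response confirmation following an ultra-high-throughput screen.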
T4 sequence (Q96LD8 whole entry): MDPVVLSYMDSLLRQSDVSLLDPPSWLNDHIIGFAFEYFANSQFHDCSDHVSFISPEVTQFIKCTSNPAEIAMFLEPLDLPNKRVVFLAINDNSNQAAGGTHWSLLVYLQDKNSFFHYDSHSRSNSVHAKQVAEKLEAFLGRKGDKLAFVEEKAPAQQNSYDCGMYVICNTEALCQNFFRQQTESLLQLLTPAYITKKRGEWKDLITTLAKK
The class given is functional.

A short description of assay [5]: Luminescence Cell-Based Dose Response to Identify Activators of 5'UTR Stem-Loop Driven Prion Protein mRNA Translation in H4-C Neuroglioblastoma Cells. [Related pubchem assays: 1829 (Project Summary), 1814 (Primary HTS)]. It is filed as functional.
Assay [6] is described as follows: Luminescence Cell-Based Dose Confirmation HTS to Identify Activators of 5'UTR Stem-Loop Driven Alpha-Synuclein mRNA Translation in H4 Neuroglioblastoma Cells. [Related pubchem assays: 1829 (Project Summary), 1814 (Primary HTS)]. It is filed as functional.
A short description of assay [7]: Luminescence Cell-Based Dose Response HTS to Identify Activators of Luciferase Translation or Activity in H4 […] Cells. [Related pubchem assays: 1829 (Project Summary), 1814 (Primary HTS)]. The class given is functional.
Assay [8] has as its system Streptococcus sp. 'group A'. As to the kind of experiment: Streptococcus pyogenes SK(-)GAS viability under kanamycin – luminescence, BacTiterGlo, confirmation, counter-screen for streptokinase expression inhibitor project, dose response (AID 1900). It is filed as functional, organism-based. (A counterscreen serves to expose hits that act by an unwanted route or on another target.)

Another assay relates to H4. As to the kind of experiment: Luminescence Cell-Based Dose Response HTS to Identify Activators of 5'UTR Stem-Loop Driven Prion Protein mRNA Translation in H4 Neuroglioblastoma Cells. [Related pubchem assays: 1829 (Project Summary), 1814 (Primary HTS)]. It is filed as functional. As to conditions: Homo sapiens.
The target of another assay is T5, Streptokinase A (Streptococcus pyogenes serotype M1, UniProt P10520).
T5 sequence (P10520 whole entry): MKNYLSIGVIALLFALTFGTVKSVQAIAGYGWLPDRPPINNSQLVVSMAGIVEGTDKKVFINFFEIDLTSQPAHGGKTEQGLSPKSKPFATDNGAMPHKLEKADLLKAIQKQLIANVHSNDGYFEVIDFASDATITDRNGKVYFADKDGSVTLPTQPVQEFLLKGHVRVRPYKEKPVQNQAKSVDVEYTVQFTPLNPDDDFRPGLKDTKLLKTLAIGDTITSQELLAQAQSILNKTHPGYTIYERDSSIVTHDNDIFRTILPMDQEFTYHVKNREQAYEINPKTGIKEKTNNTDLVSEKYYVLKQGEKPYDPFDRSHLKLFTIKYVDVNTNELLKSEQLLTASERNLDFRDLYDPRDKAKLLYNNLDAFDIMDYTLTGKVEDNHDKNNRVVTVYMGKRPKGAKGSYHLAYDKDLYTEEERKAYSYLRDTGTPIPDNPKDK
As to the kind of experiment: viability-normalized secreted streptokinase activity reduction – plasminogen activation absorbance, OD405, dose response (AID 1914).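 Further: secreted streptokinase activity via plasminogen activation per viability signal from cell pellet.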 It is filed as functional, Streptococcus pyogenes M1 GAS.

A short description of assay [9]: Luminescence Cell-Based Dose Response to Identify Activators of Luciferase Translation or Activity in H4-C Neuroglioblastoma Cells. [Related pubchem assays: 1829 (Project Summary), 1814 (Primary HTS)]. It is filed as functional.
Assay [10] can be described thus: Luminescence Cell-Based Dose Confirmation to Identify Activators of 5'UTR Stem-Loop Driven Alpha-Synuclein mRNA Translation in H4 Neuroglioblastoma Cells. [Related pubchem assays: 1829 (Project Summary), 1814 (Primary HTS)]. It is filed as functional.
For another assay, the system named is Streptococcus. As to the kind of experiment: GAS UMAA2166 growth inhibition – luminescence, BacTiterGlo, counter-screen for streptokinase expression inhibitor project, dose response (AID 1915).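 Further: potency for reduction of bacterial viability or growth.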 It is filed as functional, organism-based.
The subject of the next assay is HeLa. Kind of assay: ATP-based viability loss in HeLa cells – cell-based, CellTiter-Glo luminescence, cherry-pick samples, cytotoxicity control for MITF activator project, dose response (AID 540259). The class given is functional. As to conditions: Homo sapiens. (In general: Cellular ATP, detected with luciferase, serves as a proxy for viable cell number.)
The target of assay [11] is Beta-2 adrenergic receptor (Homo sapiens, UniProt P07550). As to the kind of experiment: ADRB2 activation measured by internalization – cell-based, FAP fluorogen, flow cytometry, cherry pick 1, dose response (AID 588763). The class given is functional. In general terms: Flow cytometry measures light scatter and fluorescence of single cells or particles in a stream.
In assay [12] the target is Dual specificity tyrosine-phosphorylation-regulated kinase 1A (Rattus norvegicus, UniProt Q63470). The class given is biochemical, Homo sapiens.
Assay [13] addresses T6, Long-chain-fatty-acid--AMP ligase FadD28 (Mycobacterium tuberculosis, UniProt P9WQ59).
T6 sequence (P9WQ59 whole entry): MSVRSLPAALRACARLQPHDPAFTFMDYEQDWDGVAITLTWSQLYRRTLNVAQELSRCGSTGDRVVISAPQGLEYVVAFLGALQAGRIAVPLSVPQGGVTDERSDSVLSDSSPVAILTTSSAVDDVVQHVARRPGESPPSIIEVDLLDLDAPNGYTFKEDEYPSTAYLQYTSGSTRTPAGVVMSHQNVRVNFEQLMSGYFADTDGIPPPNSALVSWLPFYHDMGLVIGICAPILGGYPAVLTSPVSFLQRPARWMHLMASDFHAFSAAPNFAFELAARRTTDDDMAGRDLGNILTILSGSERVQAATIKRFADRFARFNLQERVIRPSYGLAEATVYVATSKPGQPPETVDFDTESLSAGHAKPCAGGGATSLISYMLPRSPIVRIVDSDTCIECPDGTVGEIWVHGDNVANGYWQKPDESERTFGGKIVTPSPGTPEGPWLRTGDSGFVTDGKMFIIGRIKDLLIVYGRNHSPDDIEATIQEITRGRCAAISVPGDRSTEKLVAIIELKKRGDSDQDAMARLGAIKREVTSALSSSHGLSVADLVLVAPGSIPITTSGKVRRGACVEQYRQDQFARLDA
As to the kind of experiment: Fluorescence polarization aasay to screen for inhibitors that compete for the binding of FadD28 to a bisubstrate Measured in Biochemical System Using Plate Reader - 2147-01_Inhibitor_Dose_CherryPick_Activity. It is filed as functional, Mycobacterium tuberculosis H37Rv.

Active and inactive are the calls of the source.

Beta-2 adrenergic receptor, sequence (P07550 whole entry): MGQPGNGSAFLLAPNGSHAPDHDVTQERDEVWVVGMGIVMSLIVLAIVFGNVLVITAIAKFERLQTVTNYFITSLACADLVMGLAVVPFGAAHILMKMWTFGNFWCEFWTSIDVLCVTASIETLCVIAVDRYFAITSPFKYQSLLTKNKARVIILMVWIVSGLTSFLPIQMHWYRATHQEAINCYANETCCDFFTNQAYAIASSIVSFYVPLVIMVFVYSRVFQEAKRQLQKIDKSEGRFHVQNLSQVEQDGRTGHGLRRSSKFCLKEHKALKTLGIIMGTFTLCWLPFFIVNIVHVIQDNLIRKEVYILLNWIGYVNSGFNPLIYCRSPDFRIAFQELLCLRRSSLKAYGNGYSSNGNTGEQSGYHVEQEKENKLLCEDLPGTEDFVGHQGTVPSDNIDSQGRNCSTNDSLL

Take `Cc1ccc(C(=O)Nc2nc(C)c(C(=O)Nc3ccc4c(c3)CCC4)s2)cc1`: the AC50 in [1] is 0.458 µM (active). Moreover, the IC50 at Caspase-3 is 19.8 µM (active); in assay [2], 8.21 µM (active); in assay [3], > 100 µM (inactive); in assay [4], > 100 µM (inactive).

As to `Cc1cccc2nc(COc3ccc4ccccc4c3Br)cn12`, the EC50 was 0.638 µM (active) in assay [5]; 0.167 µM (active) in assay [6]; < 0.1 µM (inconclusive) in assay [7]; 12.7 µM (active) in [8]; > 120 µM (not active) in the assay with H4; > 150 µM (not active) on Streptokinase A. Besides, the EC50 in assay [9] is 0.561 µM (active); in assay [10] it was 0.34 µM (active); in the assay with Streptococcus, > 150 µM (not active); in assay [11], 3.71 µM (active). Moreover, the AC50 in the assay on HeLa is 73 µM (active).

Turning to `O=C(N/N=C/c1cccc(Oc2ccccc2)c1)c1cccc(O)c1`, the 50% inhibitory concentration (IC50) on Caspase-3 is 31.2 µM (active); in assay [2], 10.7 µM (active); in [3] it was 25.7 µM (active); in assay [4], 24 µM (active).

With `COc1ccc(/C=N/Nc2nncc3ccccc23)c(OC)c1`, the IC50 was 7.23 µM (active) at Caspase-3, 3.46 µM (active) in assay [2], 11.1 µM (active) in assay [3] and 44.8 µM (active) in [4].

On to `CCCc1ccc(OCc2nc(-c3ccc(NC(=O)c4ccco4)cc3)no2)cc1`, for which the EC50 in assay [11] was 0.161 µM (active).

For `Oc1ccc(/C=N/n2c(S)nnc2C2CCCCC2)c(O)c1`, the values for the AC50 in [12] and in assay [13] were 0.93 µM (active) and 48.8 µM (active), respectively.

These data come from ChEMBL document CHEMBL1201862, “PubChem BioAssay data set” (2004).
